Laboratory results reported in patent US20240116985A1, “STAPLED PEPTIDES AND METHODS THEREOF” (priority 2020, published 2024).
In brackets after ≈: the same amount, converted by molar mass. Where two headings read alike, the source gives them in different places.

Tests used:
[1] = molecular target: T1, full-length beta-Catenin (Uniprot ID P35222) (Homo sapiens, UniProt P35222); experiment: Fluorescence polarization IC50 (beta-catenin / 5FAM-TCF4 10-53 competition); format: binding
T1 construct: 10 nM full-length beta-Catenin (Uniprot ID P35222)
T1 sequence (P35222 1-781): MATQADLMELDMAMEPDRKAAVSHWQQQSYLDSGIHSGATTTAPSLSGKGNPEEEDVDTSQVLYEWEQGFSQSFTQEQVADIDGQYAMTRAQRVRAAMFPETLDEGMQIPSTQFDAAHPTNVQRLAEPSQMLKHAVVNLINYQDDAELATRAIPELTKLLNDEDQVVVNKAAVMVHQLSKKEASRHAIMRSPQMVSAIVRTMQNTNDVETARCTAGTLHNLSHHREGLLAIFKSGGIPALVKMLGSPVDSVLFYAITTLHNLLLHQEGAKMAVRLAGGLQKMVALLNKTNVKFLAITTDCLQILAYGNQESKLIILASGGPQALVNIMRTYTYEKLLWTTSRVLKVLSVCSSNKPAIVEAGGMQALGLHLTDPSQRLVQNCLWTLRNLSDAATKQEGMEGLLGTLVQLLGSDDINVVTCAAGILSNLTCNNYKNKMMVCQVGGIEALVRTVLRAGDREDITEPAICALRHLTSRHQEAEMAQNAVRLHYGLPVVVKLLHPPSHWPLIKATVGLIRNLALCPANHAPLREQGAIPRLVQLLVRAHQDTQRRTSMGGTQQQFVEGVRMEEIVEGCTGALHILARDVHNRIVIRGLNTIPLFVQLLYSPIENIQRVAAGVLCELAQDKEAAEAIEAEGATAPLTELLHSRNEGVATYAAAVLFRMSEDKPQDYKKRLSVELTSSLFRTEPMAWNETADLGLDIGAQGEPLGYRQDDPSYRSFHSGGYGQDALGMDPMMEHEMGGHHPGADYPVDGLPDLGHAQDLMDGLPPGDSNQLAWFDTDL

CHI Log D procedure = format: physicochemical; settings: for chromatographic logD: pH 7.4, CHI Log D; for CHI Log D: pH 7.4
Solubility in PBS = format: physicochemical
Procedure, shortened: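 Solubility is derived from HPLC peak areas: the ratio of the PBS supernatant peak to a 50 μM DMSO peptide peak, times 50 uM.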

[2] = molecular target: T2, beta-catenin/TCF4 engagement (Homo sapiens, UniProt P35222); experiment: Nano-BRET target engagement assay (B-cat-Halo & TCF4-Luc in HEK293 cells); format: cell-based; settings: for inhibition at 10 µM: read-out: NanoBRET % inh @ 10 uM
T2 construct: expressed in transfected cells; host or cells: HEK293
T2 sequence (P35222 1-781): T1 sequence (P35222 1-781)

[3] = absolute IC50, read-out: NanoBRET Abs IC50

IC50 ([1]; read-out: beta-Catenin FP IC50) [nM]	chromatographic logD (CHI Log D procedure)	Solubility (Solubility in PBS; Solubility (uM)) [µM]	IC50 ([2]; read-out: NanoBRET Abs IC50) [nM]	Solubility (Solubility in PBS) [µM]	IC50 [2, 3] [nM]	Structure (SMILES)	further results
6	2.12	48 (≈ 91.4 µg/mL)	15000	–	–	CC(=O)N1CCC[C@]12CC=CCCCC1(CCCC=CCCCOC(=O)N3CC[C@@](C(=O)N[C@@H](Cc4ccsc4)C(=O)N[C@@H](Cc4csc5ccccc45)C(=O)N[C@H](CC(N)=O)C(N)=O)(C3)NC(=O)[C@H](CC(N)=O)NC(=O)[C@H](Cc3ccccc3)NC(=O)[C@H](C)NC(=O)[C@H](C)NC(=O)[C@H](CC(=O)O)NC(=O)[C@H](CC(=O)O)NC1=O)NC(=O)[C@H](CC(C)(C)C)NC(=O)[C@H](CC(=O)O)NC2=O (stereo partly drawn) [I-818, Ac-PL3-Asp-Npg-B5-Asp-Asp-Ala-Ala-Phe-Asn-PyrS2-3Thi-BztA-dAsn-NH2]	inhibition at 10 µM ([2]; HEK293, 10 uM): 31.4%
18	2.64	–	11800	10 (≈ 20.1 µg/mL)	–	CC(=O)N1CCC[C@]12CC=CCCCC1(CCCC=CCCCOC(=O)N3CC[C@@](C(=O)N[C@@H](Cc4ccccc4Cl)C(=O)N[C@@H](Cc4csc5ccccc45)C(=O)N[C@@H](CCC(N)=O)C(N)=O)(C3)NC(=O)[C@H](CC3CCCCC3)NC(=O)[C@H](Cc3ccccc3)NC(=O)[C@H](C)NC(=O)[C@H](C)NC(=O)[C@H](CC(=O)O)NC(=O)[C@H](CC(=O)O)NC1=O)NC(=O)[C@H](CC1CCCCC1)NC(=O)[C@H](CC(=O)O)NC2=O (stereo partly drawn) [I-1107, Ac-PL3-Asp-Cha-B5-Asp-Asp-Ala-Ala-Phe-Cha-PyrS2-2C1F-BztA-Gln-NH2]	–
6	2.17	39 (≈ 74.7 µg/mL)	18000	–	–	CC(=O)N1CCC[C@]12CC=CCCCC1(CCCC=CCCCOC(=O)N3CC[C@@](C(=O)N[C@@H](Cc4ccsc4)C(=O)N[C@@H](Cc4csc5ccccc45)C(=O)N[C@@H](Cc4c[nH]cn4)C(N)=O)(C3)NC(=O)[C@H]([C@@H](C)O)NC(=O)[C@H](Cc3ccccc3)NC(=O)[C@H](C)NC(=O)[C@H](C)NC(=O)[C@H](CC(=O)O)NC(=O)[C@H](CC(=O)O)NC1=O)NC(=O)[C@H](CC(C)(C)C)NC(=O)[C@H](CC(=O)O)NC2=O (stereo partly drawn) [I-810, Ac-PL3-Asp-Npg-B5-Asp-Asp-Ala-Ala-Phe-Thr-PyrS2-3Thi-BztA-His-NH2]	–
11	–	–	25600	50 (≈ 100 µg/mL)	–	CC(=O)N1CCC[C@]12CC=CCCCC1(CCCC=CCCCCOC(=O)N3CC[C@@](C(=O)N[C@@H](Cc4ccsc4)C(=O)N[C@@H](Cc4csc5ccccc45)C(=O)N[C@@H](CCC(N)=O)C(=O)N[C@H](C)C(N)=O)(C3)NC(=O)[C@H](CC(N)=O)NC(=O)[C@H](Cc3ccccc3)NC(=O)[C@H](C)NC(=O)[C@H](C)NC(=O)[C@H](CC(=O)O)NC(=O)[C@H](CC(=O)O)NC1=O)NC(=O)[C@H](CC(C)(C)C)NC(=O)[C@H](CC(=O)O)NC2=O (stereo partly drawn) [I-831, Ac-PL3-Asp-Npg-B5-Asp-Asp-Ala-Ala-Phe-Asn-PyrS3-3Thi-BztA-Gln-dAla-NH2]	IC50 ([1]; fluorescence polarization, beta-catenin, read-out: FP EC50): 11 nM; CHI Log D (CHI Log D procedure): 2.075; inhibition at 10 µM ([2]; HEK293, 10 uM): 32.4%
20	2.49	28 (≈ 55 µg/mL)	> 20000	–	–	CC(=O)N1CCC[C@]12CC=CCCCC1(CCCC=CCCCOC(=O)N3CC[C@@](C(=O)N[C@@H](Cc4ccccc4Cl)C(=O)N[C@@H](Cc4csc5ccccc45)C(=O)N[C@@H](CO)C(N)=O)(C3)NC(=O)[C@H]([C@@H](C)O)NC(=O)[C@H](Cc3ccccc3)NC(=O)[C@H](C)NC(=O)[C@H](C)NC(=O)[C@H](CC(=O)O)NC(=O)[C@H](CC(=O)O)NC1=O)NC(=O)[C@H](Cc1cccc3ccccc13)NC(=O)[C@H](CC(=O)O)NC2=O (stereo partly drawn) [I-1114, Ac-PL3-Asp-1NapA-B5-Asp-Asp-Ala-Ala-Phe-Thr-PyrS2-2C1F-BztA-Ser-NH2]	–
5	2.16	41 (≈ 80 µg/mL)	–	–	–	COc1ccccc1C[C@H](NC(=O)[C@]12CCN(C1)C(=O)OCCCC=CCCCC1(CCCC=CC[C@]3(CCCN3C(C)=O)C(=O)N[C@@H](CC(=O)O)C(=O)N[C@@H](CC(C)(C)C)C(=O)N1)C(=O)N[C@@H](CC(=O)O)C(=O)N[C@@H](CC(=O)O)C(=O)N[C@@H](C)C(=O)N[C@@H](C)C(=O)N[C@@H](Cc1ccccc1)C(=O)N[C@@H](CC(N)=O)C(=O)N2)C(=O)N[C@@H](Cc1csc2ccccc12)C(=O)N[C@@H](Cc1c[nH]cn1)C(N)=O (stereo partly drawn) [I-781, Ac-PL3-Asp-Npg-B5-Asp-Asp-Ala-Ala-Phe-Asn-PyrS2-2OMeF-BztA-His-NH2]	inhibition at 10 µM ([2]; HEK293, @ 10 uM): 24%; IC50 ([2]; read-out: NanoBRET IC50): 11600 nM
8	2.27	–	–	50 (≈ 98.6 µg/mL)	9300	CC(=O)N1CCC[C@]12CC=CCCCC1(CCCC=CCCCOC(=O)N3CC[C@@](C(=O)N[C@@H](Cc4ccccc4Cl)C(=O)N[C@@H](Cc4csc5ccccc45)C(=O)N[C@@H](CCC(N)=O)C(N)=O)(C3)NC(=O)[C@H](CC(N)=O)NC(=O)[C@H](Cc3ccccc3)NC(=O)[C@H](C)NC(=O)[C@H](C)NC(=O)[C@H](CC(=O)O)NC(=O)[C@H](CC(=O)O)NC1=O)NC(=O)[C@H](CC1CCCCC1)NC(=O)[C@H](CC(=O)O)NC2=O (stereo partly drawn) [I-1040, Ac-PL3-Asp-Cha-B5-Asp-Asp-Ala-Ala-Phe-Asn-PyrS2-2C1F-BztA-Gln-NH2]	–

The remaining lines, values behind:

Structure (SMILES)	IC50 ([1]; read-out: beta-Catenin FP IC50) [nM]	chromatographic logD (CHI Log D procedure)	Solubility (Solubility in PBS; Solubility (uM)) [µM]	IC50 ([2]; read-out: NanoBRET Abs IC50) [nM]	Solubility (Solubility in PBS) [µM]	IC50 [2, 3] [nM]	further results
CC[C@H](C)[C@@H]1NC(=O)[C@H](CC(=O)O)NC(=O)[C@]2(CC=CCCCC3(CCCC=CCCCCCC[C@@](C)(C(=O)N[C@@H](Cc4ccccc4)C(=O)N[C@@H](Cc4csc5ccccc45)C(=O)N[C@@H](CCC(N)=O)C(N)=O)NC(=O)[C@H](CCC(N)=O)NC(=O)[C@H](Cc4ccccc4)NC(=O)[C@H](CO)NC(=O)[C@H](C)NC(=O)[C@H](CCC(=O)O)NC(=O)[C@H](CC(=O)O)NC3=O)NC1=O)CCCN2C(C)=O (stereo partly drawn) [I-662, Ac-PL3-Asp-Ile-B5-Asp-Glu-Ala-Ser-Phe-Gln-S8-Phe-BztA-Gln-NH2]	–	–	–	–	46 (≈ 87.4 µg/mL)	16100	IC50 ([1]; fluorescence polarization, read-out: beta-Catenin FP IC50): 26 nM; IC50 ([1]; read-out: FP EC50): 26 nM; CHI Log D (CHI Log D procedure): 2.125
CC(=O)N1CCC[C@]12CC=CCCCC1(CCCC=CCCCOC(=O)N3CC[C@@](C(=O)N[C@@H](Cc4ccccc4Cl)C(=O)N[C@@H](Cc4csc5ccccc45)C(=O)N[C@@H](CCC(N)=O)C(N)=O)(C3)NC(=O)[C@H](CC(N)=O)NC(=O)[C@H](Cc3ccccc3)NC(=O)[C@H](CCCCN)NC(=O)[C@H](C)NC(=O)[C@H](CN(CC(=O)O)CC(F)(F)F)NC(=O)[C@H](CC(=O)O)NC1=O)NC(=O)[C@H](CC(C)(C)C)NC(=O)[C@H](CC(=O)O)NC2=O (stereo partly drawn) [I-1006, Ac-PL3-Asp-Npg-B5-Asp-TfeGA-Ala-Lys-Phe-Asn-PyrS2-2C1F-BztA-Gln-NH2]	5	1.7	30 (≈ 63.4 µg/mL)	–	–	> 20000	–
CC(=O)N1CCC[C@]12CC=CCCCC1(CCCC=CCCCOC(=O)N3CC[C@@](C(=O)N[C@@H](Cc4ccsc4)C(=O)N[C@@H](Cc4csc5ccccc45)C(=O)N[C@@H](CCC(N)=O)C(N)=O)(C3)NC(=O)[C@H](CC(N)=O)NC(=O)[C@H](Cc3ccccc3)NC(=O)[C@H](C)NC(=O)[C@H](C)NC(=O)[C@H](CCCNC(N)=O)NC(=O)[C@H](CC(=O)O)NC1=O)NC(=O)[C@H](CC(C)(C)C)NC(=O)[C@H](CC(=O)O)NC2=O (stereo partly drawn) [I-840, Ac-PL3-Asp-Npg-B5-Asp-Cit-Ala-Ala-Phe-Asn-PyrS2-3Thi-BztA-Gln-NH2]	16	2.19	32 (≈ 62.7 µg/mL)	–	–	22300	–
CC(=O)N1CCC[C@]12CC=CCCCC1(CCCC=CCCCOC(=O)N3CC[C@@](C(=O)N[C@@H](Cc4ccsc4)C(=O)N[C@@H](Cc4csc5ccccc45)C(=O)N[C@@H](CCC(N)=O)C(=O)N[C@@H](CCCCNC(=O)C45CC6(C)CC(C)(CC(C)(C6)C4)C5)C(N)=O)(C3)NC(=O)[C@H](CC(N)=O)NC(=O)[C@H](Cc3ccccc3)NC(=O)[C@H](C)NC(=O)[C@H](C)NC(=O)[C@H](CC(=O)O)NC(=O)[C@H](CC(=O)O)NC1=O)NC(=O)[C@H](CC(C)(C)C)NC(=O)[C@H](CC(=O)O)NC2=O (stereo partly drawn) [I-920, Ac-PL3-Asp-Npg-B5-Asp-Asp-Ala-Ala-Phe-Asn-PyrS2-3Thi-BztA-Gln-[Me3AdamantC]Lys-NH2]	117	3.08	–	17700	50 (≈ 113 µg/mL)	–	–
